Reference: PMC9166766 (Experimental & Molecular Medicine, 2022)
No end group written: not given here.

Legend:
[1] = tested on: calcineurin (CNA) phosphatase activity; assay: Calcineurin cellular activity assay in Jurkat T cells; format: cell-based; conditions: HA-mCherry-tagged peptides, PMA and ionomycin
Description: (§1) We measured calcineurin phosphatase activity in vitro using a calcineurin phosphatase assay kit (BML-AK804, Enzo Life Sciences, Farmingdale, NY, USA). We incubated GST or GST-tagged peptides with CNA for 30 min at room temperature and then followed the manufacturer’s instructions. To measure endogenous calcineurin phosphatase activity, we transiently transfected Jurkat T cells with CAG-HA-mCherry-peptides by electroporation. After 24 h, we pretreated the Jurkat T cells with FK506 for 1 h before activating them with PMA and ionomycin. Next, we washed the cells with TBS buffer (20 mM Tris, pH 7.2, 150 mM NaCl), resuspended them with lysis buffer from the calcineurin cellular activity assay kit (BML-AK816, Enzo Life Sciences), and kept them on ice for 30 min. We collected the lysate supernatant and removed free phosphate by gel filtration using the Desalting Column Resin included in the kit. Next, we followed the manufacturer’s instructions.
(§2) Jurkat T cells expressing only HA-mCherry were used as a negative control, and cells treated with FK506 were used as a positive control. d In vitro calcineurin phosphatase activity assays using purified GST-tagged peptides. Purified GST was used as a negative control. […] Statistical differences were determined using one-way ANOVA. *p < 0.05, NS nonsignificant, NC negative control.

[2] = parameters: method as in PMID 24319282; conditions: ref [17]; cited from earlier work
Source text: FK506 and cyclosporin A, respectively cooperating with FKBP12 or cyclophilin, spatially hinder the substrates’ access to the active site of calcineurin, inhibiting its phosphatase activity[30],[31].

p38α = assay: In vitro kinase assay, p38α; format: biochemical; conditions: GST-tagged peptide, 1 h, 30 °C, 50 μM ATP
Description: (§3) We used the purified GST-tagged peptides for the in vitro kinase assays with activated recombinant kinases obtained from Proqinase GmbH (Freiburg, Germany). We performed the kinase assays in reaction buffer (50 mM HEPES-NaOH, pH 7.5, 3 mM MgCl2, 3 mM MnCl2, 3 μM sodium orthovanadate, 1 mM dithiothreitol, 50 μM unlabeled ATP, 5 μCi ^32P-γ-ATP) for 1 h at 30 °C. We stopped the reaction by adding 5× sample buffer and separated the proteins using SDS-PAGE. The gel was stained with Coomassie Brilliant Blue, dried, and developed on X-ray film.
(§4) The phosphorylated threonine of the immunoprecipitated peptide with HA antibody was detected with [PXpTP] antibody. b In vitro kinase assays using purified GST-tagged CABIN1 peptide and PKC downstream kinases. c In vitro kinase assays using purified GST-tagged peptides and kinases included in the MAPK family. d Immunoprecipitation assays using Flag-MAPKs and HA-CABIN1 in HEK293T cells. e, f In vitro kinase assays using p38α and substituted CABIN1 peptides. g Jurkat T cells expressing HA-mCherry-tagged CABIN1 peptide were treated with 10 μM p38α inhibitors for 16 h. Immunoprecipitation was performed with HA antibody and detected by western blotting. h Phosphorylated threonine and peptide-bound CNA of g were measured using ImageJ, and the ratio of phosphorylation and calcineurin binding to the CABIN1 peptide was calculated (n = 6). […]

JNK1 = assay: In vitro kinase assay, JNK1; format: biochemical; conditions: GST-tagged peptide, 1 h, 30 °C, 50 μM ATP
Description: as §3, §4

ERK2 = assay: In vitro kinase assay, ERK2; format: biochemical; conditions: GST-tagged peptide, 1 h, 30 °C, 50 μM ATP
Description: as §3, §4

[3] = tested on: NFAT transcriptional activity; assay: NFAT-luc luciferase reporter assay in Jurkat T cells; format: cell-based; conditions: GST-tagged peptides, 40 nM PMA and 1 μM ionomycin 8 h
Description: (§5) To measure the transcriptional activity of NFAT, we cotransfected Jurkat T cells with GST-tagged peptides and NFAT-luc by electroporation. After 24 h, we pretreated the cells with 0.5 μM FK506 for 1 h and then treated them with 40 nM PMA and 1 μM ionomycin for 8 h. For the mammalian two-hybrid assay, we cotransfected HEK293T cells with GAL4 DBD-tagged CABIN1, VIVIT, chimeric and substituted peptides, VP16 activation domain-tagged CNAβ2, and pG5-luc (luciferase reporter plasmid containing the GAL4-responsive promoter) for 24 h. We lysed the harvested cells with a luciferase assay lysis buffer (17 mM KH2PO4, 183 mM K2HPO4, pH 7.8, 0.2% [v/v] Triton X-100) and sonicated them briefly. We measured luciferase activity for each cell lysate using an Infinite M200 (Tecan, Männedorf, Switzerland). In addition, we confirmed the expression level of the transfected proteins by Western blotting.
(§6) RU response units, NC negative control.
(1 picture or pasted object on this page, not shown here)

[4] = tested on: CABIN1 peptide threonine 9 phosphorylation; assay: Phosphorylation of threonine 9 of the expressed peptide in Jurkat T cells (PXpTP western blot, LC-MS/MS); format: cell-based; conditions: HA-mCherry-tagged peptide; western blot (PXpTP antibody) and LC-MS/MS
Source text: We lysed the cells in IP150 buffer and immunoprecipitated Flag- and HA-tagged proteins with Anti-FLAG ® M2 Affinity Gel (Sigma–Aldrich) and Pierce™ Anti-HA Agarose (Thermo Fisher Scientific), respectively. The composition of the buffer and the subsequent process was described previously. To quantify the western blot results, we measured the band areas using ImageJ (https://imagej.nih.gov/ij/).
We purified HA-mCherry-tagged CABIN1-L-1-2 peptides expressed in Jurkat T cells by immunoprecipitating 4 mg of lysates with Pierce™ Anti-HA Agarose. We eluted the bead-bound proteins by competition with 1 mg/ml HA peptide. After separation by SDS-PAGE and staining with Coomassie Brilliant Blue, we analyzed the purified proteins by LC-MS/MS (ProteomeTech, Inc., Seoul, Korea).
as §6
The phosphorylated threonine of the immunoprecipitated peptide with HA antibody was detected with [PXpTP] antibody. b In vitro kinase assays using purified GST-tagged CABIN1 peptide and PKC downstream kinases. c In vitro kinase assays using purified GST-tagged peptides and kinases included in the MAPK family. d Immunoprecipitation assays using Flag-MAPKs and HA-CABIN1 in HEK293T cells. e, f In vitro kinase assays using p38α and substituted CABIN1 peptides. g Jurkat T cells expressing HA-mCherry-tagged CABIN1 peptide were treated with 10 μM p38α inhibitors for 16 h. Immunoprecipitation was performed with HA antibody and detected by western blotting. h Phosphorylated threonine and peptide-bound CNA of g were measured using ImageJ, and the ratio of phosphorylation and calcineurin binding to the CABIN1 peptide was calculated (n = 6). […] Statistical differences were determined using one-way ANOVA. *p < 0.05, **p < 0.01, ***p < 0.001, CBB Coomassie Brilliant Blue, NC negative control.

[5] = tested on: calcineurin (CNA) phosphatase activity; assay: In vitro calcineurin phosphatase activity assay; format: biochemical; conditions: purified GST-tagged peptides with CNA 30 min room temperature
Description: as §1, §2

[6] = tested on: CNA (calcineurin catalytic subunit); assay: In vitro peptide competition assay (GST-tagged peptide / His6-tagged CNA); format: binding; conditions: competitor CABIN1-L-1; molar ratio GST-peptide to competitor 1:50 to 1:400
MKK4 = assay: In vitro kinase assay, MKK4; format: biochemical; conditions: GST-tagged peptide, 1 h, 30 °C, 50 μM ATP
Description: as §3, §4

[7] = tested on: CNAβ2 (calcineurin catalytic subunit); assay: Mammalian two-hybrid assay (VP16 AD-CNAβ2 and GAL4 DBD-peptides, pG5-luc) in HEK293T cells; format: cell-based
Description: as §5
A mammalian two-hybrid assay using these peptides was performed (bottom). The compositions of the transfected DNA are described in Supplementary Fig. 1a–c. All experiments were repeated three times and are presented as the mean ± standard deviation. […] SE short exposure, LE long exposure, NC negative control, WT wild-type.
NC negative control, WT wild-type.

[8] = Protein stability of HA-mCherry-VIVIT peptides in Jurkat T cells (western blot, FACS); format: cell-based; conditions: mCherry-tagged, vs VIVIT 15-mer
Description: We quantified the expression of mCherry-tagged VIVIT peptides using LSRII (SORP) (Becton Dickinson, Franklin Lakes, NJ, USA). We analyzed the results with FlowJo (Tree Star, Inc., Ashland, OR, USA).
Protein expression l evels of VIVIT peptides were detected with HA antibody in Jurkat T cells expressing HA-mCherry -VIVIT peptides. c mCherry expression intensity and distribution
cells/sample) d mRNA expression level of mCherry was measured by qRT -PCR. (n=4) Values shown are the mean ± standard deviation. SE, short exposure, LE, long expo sure, NC, negative

Row | Compound | calcineurin phosphatase activity in cells [1] | side effects [2] | phosphorylation by p38α (p38α) | phosphorylation by JNK1 (JNK1) | phosphorylation by ERK2 (ERK2) | NFAT luciferase activity ([3]; n = 3) | inhibitory effect on NFAT luciferase relative to VIVIT peptide ([3]; n = 3, vs VIVIT peptide) | threonine 9 phosphorylation in Jurkat T cells [4] | calcineurin phosphatase activity in vitro [5] | interference with interaction between GST-tagged VIVIT peptide and His6-tagged CNA [6] | phosphorylation by MKK4 (MKK4) | interaction with / binding affinity to CNA (mammalian two-hybrid) ([7]; CNAβ2, 24 h, repeated three times) | interaction with CNA, effect of 1 μM ionomycin ([7]; with or without 1 μM ionomycin) | stability under physiological conditions vs full-length VIVIT peptide (15-mer) [8]
1 | C=CC[C@@H]1/C=C(\C)C[C@H](C)C[C@H](OC)[C@H]2O[C@@](O)(C(=O)C(=O)N3CCCC[C@H]3C(=O)O[C@H](/C(C)=C/[C@@H]3CC[C@@H](O)[C@H](OC)C3)[C@H](C)[C@@H](O)CC1=O)[C@H](C)C[C@@H]2OC [FK506, reference compound] | decreased the phosphatase activity of CNA | nephrotoxicity, fibrogenesis, neurotoxicity, and diabetes | – | – | – | – | – | – | – | – | – | – | – | –
2 | CABIN1-L-1-2: 10 amino acids from proline 2146 to proline 2155 of full-length CABIN1; expressed GST-, GAL4 DBD- or HA-mCherry-tagged (PEITVTPPTP; also: expressed GST-, GAL4 DBD- or HA-mCherry-tagged, end not given here) | did not | – | phosphorylated | phosphorylated | phosphorylated | repressed luciferase activity compared with the negative control | approximately four times stronger than that of the VIVIT peptide | observed threonine 9 phosphorylation | did not reduce the phosphatase activity of CNA in vitro | dose-dependently interfered with the interaction | directly phosphorylate | still bound to CNA | did not affect the interaction | more stable than the full-length VIVIT peptide (15-mer)
